Results: patent US11987575B2, “Tricyclic compounds as BCR-ABL inhibitors” (ASCENTAGE PHARMA (SUZHOU) CO., LTD., priority 2019, dated 2024)

Assays:
BaF3(WT) = BaF3(WT) (Homo sapiens, UniProt P00519); assay: WST (CCK-8) anti-proliferative assay, BaF3 WT; conditions: read-out: BaF3(WT); BaF3 WT cells, 72 h treatment, CCK-8 readout OD 450 nm
BaF3 (T315I mutant) = BaF3 (T315I mutant) (Homo sapiens, UniProt P00519, T315I, cells depend on it); assay: WST (CCK-8) anti-proliferative assay, BaF3 T315I mutant; conditions: read-out: BaF3 (T315I mutant), 72 h treatment, CCK-8 readout OD 450 nm

Row | GI50 (BaF3(WT)) [µM] | GI50 (BaF3 (T315I mutant)) [µM] | SMILES
1 | 0.017 | 0.192 | CC(C)N1c2c(-c3ccn[nH]3)cc(C(=O)Nc3ccc(OC(F)(F)Cl)cc3)cc2C2CCC(O)C21 (stereo not shown) [Compound 1, N-(4-(chlorodifluoromethoxy)phenyl)-3-hydroxy-4-isopropyl-5-(1H-pyrazol-5-yl)-1,2,3,3a,4,8b-hexahydrocyclopenta[b]indole-7-carboxamide]
2 | 0.015 | 0.354 | CC(C)N1c2c(-c3ccn[nH]3)cc(C(=O)Nc3ccc(OC(F)(F)Cl)cc3)cc2C2CCCC21 (stereo not shown) [Compound 2, N-(4-(chlorodifluoromethoxy)phenyl)-4-isopropyl-5-(1H-pyrazol-5-yl)-1,2,3,3a,4,8b-hexahydrocyclopenta[b]indole-7-carboxamide]
3 | 0.036 | 0.177 | CC(C)N1c2c(-c3ccn[nH]3)cc(C(=O)Nc3ccc(OC(F)(F)Cl)cc3)cc2C2CC(O)C(O)C21 (stereo not shown) [Compound 3, N-(4-(chlorodifluoromethoxy)phenyl)-2,3-dihydroxy-4-isopropyl-5-(1H-pyrazol-5-yl)-1,2,3,3a,4,8b-hexahydrocyclopenta[b]indole-7-carboxamide]
4 | 0.014 | 0.071 | CC(=O)NC1CCC2c3cc(C(=O)Nc4ccc(OC(F)(F)Cl)cc4)cc(-c4ccn[nH]4)c3N(C(C)C)C12 (stereo not shown) [Compound 4, 3-acetamido-N-(4-(chlorodifluoromethoxy)phenyl)-4-isopropyl-5-(1H-pyrazol-5-yl)-1,2,3,3a,4,8b-hexahydrocyclopenta[b]indole-7-carboxamide]
5 | 0.003 | 0.035 | CC(=O)N[C@@H]1CC[C@H]2c3cc(C(=O)Nc4ccc(OC(F)(F)Cl)cc4)cc(-c4ccn[nH]4)c3N(C(C)C)[C@@H]12 [Compound 4-A, (3R,3aR,8bS)-3-acetamido-N-(4-(chlorodifluoromethoxy)phenyl)-4-isopropyl-5-(1H-pyrazol-5-yl)-1,2,3,3a,4,8b-hexahydrocyclopenta[b]indole-7-carboxamide]
6 | 0.535 | 1.27 | CC(=O)N[C@H]1CC[C@@H]2c3cc(C(=O)Nc4ccc(OC(F)(F)Cl)cc4)cc(-c4ccn[nH]4)c3N(C(C)C)[C@H]12 [Compound 4-B, (3S,3aS,8bR)-3-acetamido-N-(4-(chlorodifluoromethoxy)phenyl)-4-isopropyl-5-(1H-pyrazol-5-yl)-1,2,3,3a,4,8b-hexahydrocyclopenta[b]indole-7-carboxamide]
7 | 0.034 | 0.144 | CNS(=O)(=O)NC1CCC2c3cc(C(=O)Nc4ccc(OC(F)(F)Cl)cc4)cc(-c4ccn[nH]4)c3N(C(C)C)C12 (stereo not shown) [Compound 5]
8 | 0.067 | 0.154 | CC(C)N1c2c(-c3ccn[nH]3)cc(C(=O)Nc3ccc(OC(F)(F)Cl)cc3)cc2C2CCC(NS(C)(=O)=O)C21 (stereo not shown) [Compound 6]
9 | 0.014 | 0.142 | CC(C)C(=O)NC1CCC2c3cc(C(=O)Nc4ccc(OC(F)(F)Cl)cc4)cc(-c4ccn[nH]4)c3N(C(C)C)C12 (stereo not shown) [Compound 7]
10 | 0.017 | 0.206 | COCC(=O)NC1CCC2c3cc(C(=O)Nc4ccc(OC(F)(F)Cl)cc4)cc(-c4ccn[nH]4)c3N(C(C)C)C12 (stereo not shown) [Compound 9]
11 | 0.031 | 0.029 | CC(C)N1c2c(-c3ccn[nH]3)cc(C(=O)Nc3ccc(OC(F)(F)Cl)cc3)cc2C2CCC(NC(=O)N3CCOCC3)C21 (stereo not shown) [Compound 10]
12 | 0.053 | 0.064 | CNC(=O)NC1CCC2c3cc(C(=O)Nc4ccc(OC(F)(F)Cl)cc4)cc(-c4ccn[nH]4)c3N(C(C)C)C12 (stereo not shown) [Compound 11]
13 | 0.01 | 0.216 | CC(C)N1c2c(-c3ccn[nH]3)cc(C(=O)Nc3ccc(OC(F)(F)Cl)cc3)cc2C2CCC(NS(=O)(=O)N(C)C)C21 (stereo not shown) [Compound 12]
14 | 0.012 | 0.122 | CC(C)N1c2c(-c3ccn[nH]3)cc(C(=O)Nc3ccc(OC(F)(F)Cl)cc3)cc2C2CCC(NS(=O)(=O)N3CCOCC3)C21 (stereo not shown) [Compound 13]
15 | 0.041 | 0.208 | CC(C)N1c2c(-c3ccn[nH]3)cc(C(=O)Nc3ccc(OC(F)(F)Cl)cc3)cc2C2CCC(NC(=O)N3CCN(C)CC3)C21 (stereo not shown) [Compound 14]
16 | 0.035 | 0.346 | CC(C)N1c2c(-c3ccn[nH]3)cc(C(=O)Nc3ccc(OC(F)(F)Cl)cc3)cc2C2CCC(NS(=O)(=O)N3CCN(C)CC3)C21 (stereo not shown) [Compound 15]
17 | 0.012 | 0.252 | CC(C)N1c2c(-c3ccn[nH]3)cc(C(=O)Nc3ccc(OC(F)(F)Cl)cc3)cc2C2CCC(NS(=O)(=O)N3CCCCC3)C21 (stereo not shown) [Compound 16]
18 | 1.06 | 1.67 | CC(C)N1c2c(-c3ccn[nH]3)cc(C(=O)Nc3ccc(OC(F)(F)Cl)cc3)cc2C2CCC(NS(=O)(=O)c3nnc[nH]3)C21 (stereo not shown) [Compound 17]

Row | GI50 (BaF3(WT)) [µM] | GI50 (BaF3 (T315I mutant)) [µM] | SMILES
19 | 0.013 | 0.126 | COCCS(=O)(=O)NC1CCC2c3cc(C(=O)Nc4ccc(OC(F)(F)Cl)cc4)cc(-c4ccn[nH]4)c3N(C(C)C)C12 (stereo not shown) [Compound 18]
20 | 0.006 | 0.097 | CC(C)NS(=O)(=O)NC1CCC2c3cc(C(=O)Nc4ccc(OC(F)(F)Cl)cc4)cc(-c4ccn[nH]4)c3N(C(C)C)C12 (stereo not shown) [Compound 19]
21 | 0.042 | 0.029 | CC(=O)N[C@@H]1CC[C@H]2c3cc(C(=O)Nc4ccc(OC(F)(F)Cl)cc4)cc(-c4cncnc4)c3N(C(C)C)[C@@H]12 [Compound 20-A, (3R,3aR,8bS)-3-acetamido-N-(4-(chlorodifluoromethoxy)phenyl)-4-isopropyl-5-(pyrimidin-5-yl)-1,2,3,3a,4,8b-hexahydrocyclopenta[b]indole-7-carboxamide]
22 | 0.365 | 1.38 | CC(=O)N[C@H]1CC[C@@H]2c3cc(C(=O)Nc4ccc(OC(F)(F)Cl)cc4)cc(-c4cncnc4)c3N(C(C)C)[C@H]12 [Compound 20-B, (3S,3aS,8bR)-3-acetamido-N-(4-(chlorodifluoromethoxy)phenyl)-4-isopropyl-5-(pyrimidin-5-yl)-1,2,3,3a,4,8b-hexahydrocyclopenta[b]indole-7-carboxamide]
23 | 0.009 | 0.044 | CC(=O)NC1CCC2c3cc(C(=O)Nc4ccc(OC(F)(F)Cl)cc4)cc(-c4cncnc4)c3N(C(C)C)C12 (stereo not shown) [Compound 20]
24 | 0.027 | 0.176 | CC(=O)NC1CCC2c3cc(C(=O)Nc4ccc(OC(F)(F)Cl)cc4)cc(-c4ccncc4)c3N(C(C)C)C12 (stereo not shown) [Compound 21]
25 | 0.003 | 0.021 | CC(=O)N[C@@H]1CC[C@H]2c3cc(C(=O)Nc4ccc(OC(F)(F)Cl)cc4)cc(-c4ccn[nH]4)c3N(CC(C)(C)C)[C@@H]12 [Compound 22-A, (3R,3aR,8bS)-3-acetamido-N-(4-(chlorodifluoromethoxy)phenyl)-4-neopentyl-5-(1H-pyrazol-5-yl)-1,2,3,3a,4,8b-hexahydrocyclopenta[b]indole-7-carboxamide]
26 | 0.482 | 1.01 | CC(=O)N[C@H]1CC[C@@H]2c3cc(C(=O)Nc4ccc(OC(F)(F)Cl)cc4)cc(-c4ccn[nH]4)c3N(CC(C)(C)C)[C@H]12 [Compound 22-B, (3S,3aS,8bR)-3-acetamido-N-(4-(chlorodifluoromethoxy)phenyl)-4-neopentyl-5-(1H-pyrazol-5-yl)-1,2,3,3a,4,8b-hexahydrocyclopenta[b]indole-7-carboxamide]
27 | 0.003 | 0.021 | CC(=O)NC1CCC2c3cc(C(=O)Nc4ccc(OC(F)(F)Cl)cc4)cc(-c4ccn[nH]4)c3N(CC(C)(C)C)C12 (stereo not shown) [Compound 22]
28 | 0.01 | 0.081 | CC(=O)NC1CCC2c3cc(C(=O)Nc4ccc(OC(F)(F)Cl)cc4)cc(-c4ccn[nH]4)c3N(CC(C)C)C12 (stereo not shown) [Compound 23]
29 | 0.017 | 0.114 | CC(C)N1c2c(-c3ccn[nH]3)cc(C(=O)Nc3ccc(OC(F)(F)Cl)cc3)cc2C2CCC(NS(=O)(=O)C3CC3)C21 (stereo not shown) [Compound 24]
30 | 0.015 | 0.183 | CC(C)N1c2c(-c3ccn[nH]3)cc(C(=O)Nc3ccc(OC(F)(F)Cl)cc3)cc2C2CCC(NS(=O)(=O)C3CCOCC3)C21 (stereo not shown) [Compound 25]
31 | 0.006 | 0.041 | CC(=O)N[C@@H]1CC[C@H]2c3cc(C(=O)Nc4ccc(OC(F)(F)Cl)cc4)cc(-c4cccnc4)c3N(C(C)C)[C@@H]12 [Compound 26-A, (3R,3aR,8bS)-3-acetamido-N-(4-(chlorodifluoromethoxy)phenyl)-4-isopropyl-5-(pyridin-3-yl)-1,2,3,3a,4,8b-hexahydrocyclopenta[b]indole-7-carboxamide]
32 | 0.186 | 0.956 | CC(=O)N[C@H]1CC[C@@H]2c3cc(C(=O)Nc4ccc(OC(F)(F)Cl)cc4)cc(-c4cccnc4)c3N(C(C)C)[C@H]12 [Compound 26-B, (3S,3aS,8bR)-3-acetamido-N-(4-(chlorodifluoromethoxy)phenyl)-4-isopropyl-5-(pyridin-3-yl)-1,2,3,3a,4,8b-hexahydrocyclopenta[b]indole-7-carboxamide]
33 | 0.012 | 0.065 | CC(=O)NC1CCC2c3cc(C(=O)Nc4ccc(OC(F)(F)Cl)cc4)cc(-c4cccnc4)c3N(C(C)C)C12 (stereo not shown) [Compound 26]
34 | 1.24 | 5.06 | CC(C)N1c2c(-c3ccn[nH]3)cc(C(=O)Nc3ccc(OC(F)(F)Cl)cc3)cc2C2CCC(NC(=O)C3CCNCC3)C21 (stereo not shown) [Compound 27]
35 | 0.019 | 0.168 | CCOC(=O)NC1CCC2c3cc(C(=O)Nc4ccc(OC(F)(F)Cl)cc4)cc(-c4ccn[nH]4)c3N(C(C)C)C12 (stereo not shown) [Compound 28]
